Test results taken from patent publication EP0080940B1, “Derivatives of 2-phenyl-morpholine and medical compositions” (LABORATOIRE L. LAFON Société anonyme dite:, priority 1981, dated 1983).
Read-outs that look alike come from different tables or passages of the source.

Experiments:
Assay type in all cases: in vivo
[1] = Acute toxicity by the i.p. route (DL-0, DL-50); conditions: mouse, in vivo, ip; souris mâle, voie i.p.
Procedure: (§1) On a résumé ci-après les résultats des essais qui ont été entrepris chez l'animal avec le CRL 40914, ce produit étant administré, sauf indications contraires, en solution dans l'eau (à pH 5) par voie intrapéritonéale sous un volume de 20 ml/kg chez la souris mâle et de 5 ml/kg chez le rat mâle.
(§2) Chez la souris mâle, la DL-0 (dose maximale non mortelle) par voie i.p. est supérieure à 128 mg/kg.
(§3) On a résumé ci-après les résultats des essais qui ont été entrepris chez l'animal avec le CRL 40915, les modalités opératoires étant celles données ci-dessus pour le CR L 40914.
(§4) Chez la souris mâle, la DL-0 (dose maximale non mortelle) par voie i.p. est supérieure à 256 mg/kg, et la DL-50 par voie i.p. est de l'ordre de 500 mg/kg environ.

souris mâle = experiment: Acute toxicity by the i.p. route (DL-0, DL-50); conditions: voie i.p.
Procedure: as §1, §2, §3, §4

souris [2] = experiment: Global behaviour and reactivity, mouse
Procedure: as §1
(§5) Des lots de 3 animaux sont observés avant, puis 15 min, 30 min, 1 h, 2 h, 3 h et 24 h après l'administration de CRL 40914. On observe ce qui suit:
as §3

rat = experiment: Global behaviour and reactivity, rat; conditions: rat
Procedure: as §1, §5, §3

souris [3] = experiment: Interaction with apomorphine, mouse
Procedure: Des lots de 6 souris reçoivent le CRL 40914 une demi-heure avant l'injection sous-cutanée d'apomorphine, à la dose de 1 mg/kg ou 16 mg/kg.
as §3

rats [4] = experiment: Interaction with apomorphine, rat; conditions: rat
Procedure: Le CRL 40914 est administré aux rats une demi-heure avant l'injection sous-cutanée de 0,5 mg/kg d'apomorphine.
as §3

rats [5] = experiment: Interaction with amphetamine; conditions: rat
Procedure: L'amphétamine (2 mg/kg) est injectée par voie intrapéritonéale à des lots de 12 rats, une demi-heure après l'administration de CRL 40914.
as §3

souris [6] = experiment: Interaction with reserpine; conditions: 128 mg/kg
Procedure: Quatre heures après l'injection intrapéritonéale de 2,5 mg/kg de réserpine, des lots de 6 souris reçoivent le CRL 40914.
as §3

souris [7] = experiment: Interaction with oxotremorine
Procedure: Le CRL 40914 est administré à des lots de 6 souris une demi-heure avant l'injection intrapéritonéale de 0,5 mg/kg d'oxotrémorine.
as §3

souris [8] = experiment: Four plates test, traction and electroshock; conditions: 32 mg/kg et 128 mg/kg
Text: Le test est pratiqué sur des lots de 10 souris, une demi-heure après l'administration de CRL 40914.
as §3

souris [9] = experiment: Action on spontaneous motility (actimeter); conditions: 32 mg/kg et 128 mg/kg
Procedure: Une demi-heure après avoir reçu le CRL 40914, des souris sont placées en actimètre où leur motilité est enregistrée pendant 30 min.
as §3

souris [10] = experiment: Motility reduced by habituation to the enclosure
Procedure: Après 18 h de séjour dans les actimètres, les souris (6 par dose, 12 témoins) reçoivent le CRL 40914. Elles sont aussitôt replacées dans leurs enceintes respectives et, une demi-heure plus tard, on enregistre leur motilité pendant 30 min.
as §3

souris [11] = experiment: Motility reduced by hypoxic aggression
Procedure: Une demi-heure après avoir reçu le CRL 40914, les souris (10 par dose, 20 témoins) sont soumises à une anoxie hypobare aiguë [dépression de 600 mm Hg (soit environ 8 x10^4 pascals) en 90 s puis détente de 45 s] puis elles sont placées en actimètre où leur motilité est enregistrée pendant 10min.
as §3

souris [12] = experiment: Asphyxic anoxia (gallamine triethiodide); conditions: 8 mg/kg, 32 mg/kg et 128 mg/kg, triiodoéthylate de gallamine
Procedure: Des lots de 10 souris reçoivent le CRL 40914 une demi-heure avant l'administration intrapéritonéale de 32 mg/kg de triiodoéthylate de gallamine (agent curarisant de référence).
as §3

souris [13] = experiment: Interaction with yohimbine, temperature; conditions: yohimbine 0,5 mg/kg i.p. alone
Procedure: Des lots de 12 souris reçoivent une injection intrapéritonéale de 0,5 mg/kg de yohimbine, une demi-heure avant l'administration de CRL 40914.

souris [14] = experiment: Interaction with yohimbine, spontaneous motility; conditions: yohimbine 0,5 mg/kg i.p. alone
Procedure: Des lots de 12 souris reçoivent la yohimbine (0,5 mg/kg i.p.) et le CRL 40914 respectivement 60 et 30 min avant d'être placées en actimètre où leur motilité est enregistrée pendant une demi-heure.

In the case of `Cc1ccccc1C1CN(C)CCO1` (stereo not shown) [CRL 40915, Chlorhydratede 2-o-tolyl-4-méthyl-morpholine], the LD50 [1] is reported as roughly 500 mg/kg, the “DL-0 (dose maximale non mortelle)” value (souris mâle) is reported as greater than 256 mg/kg and the symptômes (souris [2]; 2 mg/kg i.p.) is reported as “pas de symptômes nets”. For the same molecule, the sédation (souris [2]; 8 mg/kg i.p.) was “sédation fugace pendant 15 à 30 minutes”, the hypothermie (souris [2]; 8 mg/kg i.p., pendant 1 heure) was -1,5 °C and the sédation (souris [2]; 32 mg/kg i.p.) was “sédation pendant 1 heure”. For the same molecule, the hypothermie (souris [2]; 32 mg/kg i.p., pendant 1 heure) was -2,8 °C, the convulsions (souris [2]; 128 mg/kg i.p.) was “convulsions pendant 15 minutes” and the hyporéactivité au toucher (souris [2]; 128 mg/kg i.p.) was “hyporéactivité au toucher pendant 15 minutes”. For the same molecule, the salivation et lacrymation (souris [2]; 128 mg/kg i.p.) was “salivation et lacrymation pendant 30 minutes”, the sédation (souris [2]; 128 mg/kg i.p.) was “sédation avec diminution de la réaction d'agressivité pendant 2 heures” and the hypothermie (souris [2]; 128 mg/kg i.p., pendant 2 heures) was -2,9 °C. The signes (rat; 1 mg/kg i.p.) was “pas de signes particuliers”, the mydriase (rat; 4 mg/kg i.p.) was “mydriase modérée pendant 30 minutes” and the sédation (rat; 4 mg/kg i.p.) was “sédation pendant 30 minutes”. For the same molecule, the mydriase (rat; 16 mg/kg i.p.) was “mydriase pendant 30 à 60 minutes”, the piloérection (rat; 16 mg/kg i.p.) was “piloérection” and the sédation (rat; 16 mg/kg i.p.) was “sédation pendant 1 à 2 heures”. The mydriase (rat; 64 mg/kg i.p.) was “mydriase pendant 1 heure”, the piloérection (rat; 64 mg/kg i.p.) was “piloérection pendant 1 heure” and the sédation (rat; 64 mg/kg i.p.) was “sédation pendant 1 à 2 heures”. The hypothermie (rat; 64 mg/kg i.p., pendant 30 à 60 minutes) was -1,9 °C, the “action hypothermisante de l'apomorphine” value (souris [3]; 32 mg/kg et 128 mg/kg) was “s'oppose aux doses de 32 mg/kg et 128 mg/kg à l'action hypothermisante de l'apomorphine” and the “indices de verticalisation et de stéréotypies (apomorphine)” value (souris [3]; 128 mg/kg, faible dose (1 mg/kg) d'apomorphine) was “diminue les indices de verticalisation et de stéréotypies”. The “effet intrinsèque sur la température” value (souris [3]; doses voisines de 32 mg/kg) was “effet hypothermisant intrinsèque”, the “stéréotypies produites par l'apomorphine” value (rats [4]) was “ne modifie pas les stéréotypies produites par l'apomorphine” and the “stéréotypies amphétaminiques” value (rats [5]) was “ne sont pas modifiées”. For the same molecule, the “hypothermie réserpinique” value (souris [6]) was “aggrevation de I-hypothermie réserpinique”, the “ptosis réserpinique” value (souris [6]) was “le ptosis déjà maximal n'est pas modifié” and the “effet intrinsèque sur la température” value (souris [7]; 32 mg/kg et 128 mg/kg) was “effet hypothermisant intrinsèque”. The “hypothermie induite par l'oxotrémorine” value (souris [7]; 32 mg/kg et 128 mg/kg) was “s'oppose à l'hypothermie induite par l'oxotrémorine”, the “tremblements induits par l'oxotrémorine” value (souris [7]; 128 mg/kg) was “semblent partiellement antagonisés” and the “signes de stimulation cholinergique périphérique provoqués par l'oxotrémorine” value (souris [7]; oxotrémorine 0,5 mg/kg i.p.) was “laisse inchangés les signes de stimulation cholinergique périphérique”. The “déficit moteur (traction)” value (souris [8]) was “ne provoque pas de déficit moteur majeur”, the “effets convulsivants de l'électrochoc” value (souris [8]) was “s'oppose aux effets convulsivants de l'électrochoc” and the “nombre de passages punis (test des quatre plaques)” value (souris [8]) was “diminue le nombre de passages punis”. For the same molecule, the “activité motrice spontanée” value (souris [9]) was “diminution importante de l'activité motrice spontanée”, the “activité motrice chez la souris habituée à son enceinte” value (souris [10]) was “ne provoque pas de reprise de l'activité” and the “récupération motrice après agression hypoxique” value (souris [11]) was “n'entraîne pas d'amélioration de la récupération motrice”. The “récupération motrice après agression hypoxique” value (souris [11]; 32 mg/kg et 128 mg/kg) was “aggravation” and the “apparition des convulsions et de la mort (anoxie asphyxique)” value (souris [12]) was “retarde l'apparition des convulsions et de la mort”.
With `COC(=O)[C@@H]1[C@H]2C[C@H]3c4[nH]c5ccccc5c4CCN3C[C@@H]2CC[C@@H]1O` [yohimbine, reference compound] the température rectale (souris [13]) was “ne modifie pas la température rectale” and the “activité motrice spontanée” value (souris [14]) was “ne modifie pas l'activité motrice spontanée”.
